Data published in patent US12011444B2, “N-substituted indole derivatives as PGE2 receptor modulators” (Idorsia Pharmaceuticals Ltd, priority 2015, dated 2024).

Columns and labels:
[1] = biological target: PTGER2 (EP2) (Homo sapiens (Human), UniProt P43116); assay: hEP2 b-arrestin assay (PathHunter HEK 293 PTGER2 b-arrestin cells); format: cell-based
In short: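 Readout is β-galactosidase complementation luminescence, expressed as percent of DMSO control (duplicates). PathHunter HEK293 EP2/β-arrestin 2 cells, grown 24 h, received compound for 15 min at 37 °C before a 120 min challenge with PGE2 at 5 μM final, followed by 1 h detection at room temperature.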

[2] = biological target: PTRGER4 (EP4) (Homo sapiens (Human), UniProt P35408); assay: hEP4 b-arrestin assay (PathHunter HEK 293 PTGER4 b-arrestin cells); format: cell-based
In short: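 Antagonist mode: compound is given 15 min at 37 °C, then 20 nM (final) PGE2 for 120 min, in HEK293 cells stably expressing EP4 fused to ProLink and β-arrestin 2 fused to EA. Recruitment read as β-gal luminescence after 1 h reagent at room temperature, as percent of DMSO control.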

[3] = antagonistic activity on hEP2, mean where measured multiple times
[4] = antagonistic activity on hEP4, mean where measured multiple times
[5] = hEP2 b-arrestin assay (values without asterisk)
[6] = hEP4 b-arrestin assay (values without asterisk)

Chain of PTRGER4 (EP4) (P35408 whole entry, looked up, the tested form may be a part): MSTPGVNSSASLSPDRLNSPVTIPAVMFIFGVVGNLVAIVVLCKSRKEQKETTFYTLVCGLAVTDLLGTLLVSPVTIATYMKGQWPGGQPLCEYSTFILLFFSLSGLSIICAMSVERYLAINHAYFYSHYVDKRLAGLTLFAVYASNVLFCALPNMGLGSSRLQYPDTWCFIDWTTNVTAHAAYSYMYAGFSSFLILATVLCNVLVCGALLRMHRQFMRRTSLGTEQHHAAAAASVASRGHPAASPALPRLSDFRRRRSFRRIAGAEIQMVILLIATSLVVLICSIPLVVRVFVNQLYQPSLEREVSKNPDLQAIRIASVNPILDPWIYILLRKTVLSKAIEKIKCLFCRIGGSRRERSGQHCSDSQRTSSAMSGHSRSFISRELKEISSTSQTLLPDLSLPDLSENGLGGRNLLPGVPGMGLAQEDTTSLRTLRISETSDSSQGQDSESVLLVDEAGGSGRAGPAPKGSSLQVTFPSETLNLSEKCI
Chain of PTGER2 (EP2) (P43116 whole entry): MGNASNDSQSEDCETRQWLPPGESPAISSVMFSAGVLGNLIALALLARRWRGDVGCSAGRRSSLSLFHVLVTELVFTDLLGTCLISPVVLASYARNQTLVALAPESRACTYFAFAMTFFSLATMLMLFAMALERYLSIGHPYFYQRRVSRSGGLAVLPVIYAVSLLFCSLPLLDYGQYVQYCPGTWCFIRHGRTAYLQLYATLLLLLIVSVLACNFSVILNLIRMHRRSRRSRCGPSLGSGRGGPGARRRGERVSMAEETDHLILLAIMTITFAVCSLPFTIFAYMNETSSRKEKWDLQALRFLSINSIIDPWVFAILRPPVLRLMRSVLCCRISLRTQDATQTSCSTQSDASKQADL

Row | SMILES | IC50 [1, 3] | IC50 [2, 4] | IC50 [1, 5] | IC50 [2, 6]
1 | CCc1cc(-c2cc(NCCn3c(C)cc4cc(F)cc(F)c43)ncn2)ccc1C(=O)O [compound 122, 4-{6-[2-(5,7-Difluoro-2-methyl-indol-1-yl)-ethylamino]-pyrimidin-4-yl}-2-ethyl-benzoic acid] | 9 nM | 974 nM | – | –
2 | CCOc1cc(-c2cc(NCCn3c(C)cc4c(OC)ccc(F)c43)ncn2)sc1C(C)O (centres unmarked) [Example 1053, 1-(3-Ethoxy-5-{6-[2-(7-fluoro-4-methoxy-2-methyl-indol-1-yl)-ethylamino]-pyrimidin-4-yl}-thiophen-2-yl)-ethanol] | – | – | 10 nM | 100 nM
3 | Cc1ccc(F)c2c1cc(C#N)n2CCNc1cc(-c2cc(C(F)(F)F)c(C(=O)O)s2)ncn1 [Example 858, 5-{6-[2-(2-Cyano-7-fluoro-4-methyl-indol-1-yl)-ethylamino]-pyrimidin-4-yl}-3-trifluoromethyl-thiophene-2-carboxylic acid] | – | – | 22 nM | 4 nM
4 | CCOc1cc(-c2cc(NCCn3c(C#N)cc4c(Cl)cc(F)c(F)c43)ncn2)ccc1NCC(=O)O [Example 916, (4-{6-[2-(4-Chloro-2-cyano-6,7-difluoro-indol-1-yl)-ethylamino]-pyrimidin-4-yl}-2-ethoxy-phenylamino)-acetic acid] | – | – | 20 nM | 18 nM
5 | CCNc1cc(-c2cc(NCCn3c(C)cc4c(Cl)cccc43)ncn2)ccc1C(=O)O [compound 212] | 1 nM | 173 nM | – | –
6 | CSc1cc(-c2cc(NCCn3c(C)cc4c(C)ccc(Cl)c43)ncn2)cc(Cl)c1C(=O)O [compound 150] | 54 nM | 458 nM | – | –
7 | COc1ccc(F)c2c1cc(C)n2CCNc1cc(-c2cc(C(F)(F)F)c(-c3nn[nH]n3)s2)ncn1 [Example 1060, [2-(7-Fluoro-4-methoxy-2-methyl-indol-1-yl)-ethyl]-{6-[5-(2H-tetrazol-5-yl)-4-trifluoromethyl-thiophen-2-yl]-pyrimidin-4-yl}-amine] | – | – | 17 nM | 36 nM
8 | Cc1cc(F)c(F)c2c1cc(C)n2CCNc1cc(-c2ccc(-c3ncno3)cc2)ncn1 [compound 187, [2-(6,7-Difluoro-2,4-dimethyl-indol-1-yl)-ethyl]-[6-(4-[1,2,4]oxadiazol-5-yl-phenyl)-pyrimidin-4-yl]-amine] | 20 nM | 198 nM | – | –
9 | CCCc1cc(-c2cc(NCCn3c(C)cc4cc(C)cc(F)c43)ncn2)ccc1C(=O)O [compound 267] | 26 nM | 317 nM | – | –
10 | CCOc1cc(-c2cc(NCCn3c(C)cc4c(OC)ccc(F)c43)ncn2)sc1NC=O [Example 1072, N-(3-Ethoxy-5-{6-[2-(7-fluoro-4-methoxy-2-methyl-indol-1-yl)-ethylamino]-pyrimidin-4-yl}-thiophen-2-yl)-formamide] | – | – | 3 nM | 17 nM
11 | CCNc1csc(-c2cc(NCCn3c(C)cc4c(C)cc(F)cc43)ncn2)c1 [Example 1069, [6-(4-Ethylamino-thiophen-2-yl)-pyrimidin-4-yl]-[2-(6-fluoro-2,4-dimethyl-indol-1-yl)-ethyl]-amine] | – | – | 9 nM | 41 nM
12 | CCc1cc(-c2cc(NCCn3c(C)cc4c(C)cc(F)cc43)ncn2)cc(Cl)c1C(=O)O [compound 264] | 71 nM | 287 nM | – | –
13 | COc1ccc(F)c2c1cc(C#N)n2CCNc1cc(-c2ccnc(N)c2)ncn1 [Example 988, 1-{2-[6-(2-Amino-pyridin-4-yl)-pyrimidin-4-ylamino]-ethyl}-7-fluoro-4-methoxy-1H-indole-2-carbonitrile] | – | – | 51 nM | 197 nM
14 | Cc1cc(F)cc2c1cc(C)n2CCNc1cc(-c2ccc(-c3ccon3)cc2)ncn1 [compound 94, [2-(6-Fluoro-2,4-dimethyl-indol-1-yl)-ethyl]-[6-(4-isoxazol-3-yl-phenyl)-pyrimidin-4-yl]-amine] | 30 nM | 299 nM | – | –
15 | Cc1cccc2c1cc(C)n2CCNc1cc(-c2ccc(C(=O)O)c(CCC(C)C)c2)ncn1 [compound 329, 4-{6-[2-(2,4-Dimethyl-indol-1-yl)-ethylamino]-pyrimidin-4-yl}-2-(3-methyl-butyl)-benzoic acid] | 27 nM | 653 nM | – | –
16 | COc1ccc(F)c2c1cc(C#N)n2CCNc1cc(-c2ccc(-c3c(O)c(=O)c3=O)cc2)ncn1 [Example 933, 7-Fluoro-1-(2-{6-[4-(2-hydroxy-3,4-dioxo-cyclobut-1-enyl)-phenyl]-pyrimidin-4-ylamino}-ethyl)-4-methoxy-1H-indole-2-carbonitrile] | – | – | 12 nM | 4 nM
17 | COc1ccc(F)c2c1cc(C)n2CCNc1cc(-c2ccc(-n3cccn3)cc2)ncn1 [compound 190] | 53 nM | 193 nM | – | –

Row | SMILES | IC50 [1, 3] | IC50 [2, 4] | IC50 [1, 5] | IC50 [2, 6]
18 | CCc1cc(-c2cc(NCCn3c(C#N)cc4c(OC)ccc(F)c43)ncn2)ccc1OCC(=O)O [Example 834, (4-{6-[2-(2-Cyano-7-fluoro-4-methoxy-indol-1-yl)-ethylamino]-pyrimidin-4-yl}-2-ethyl-phenoxy)-acetic acid] | – | – | 15 nM | 28 nM
19 | COc1ccc(F)c2c1cc(C#N)n2CCNc1cc(-c2cc(Cl)c(C(=O)O)c(OCC(C)C)c2)ncn1 [Example 913, 2-Chloro-4-{6-[2-(2-cyano-7-fluoro-4-methoxy-indol-1-yl)-ethylamino]-pyrimidin-4-yl}-6-isobutoxy-benzoic acid] | – | – | 13 nM | 5 nM
20 | COc1cc(F)cc2c1cc(C)n2CCNc1cc(-c2ccc(-c3ccn(C)n3)cc2)ncn1 [compound 309, [2-(6-Fluoro-4-methoxy-2-methyl-indol-1-yl)-ethyl]-{6-[4-(1-methyl-1H-pyrazol-3-yl)-phenyl]-pyrimidin-4-yl}-amine] | 11 nM | 86 nM | – | –
21 | CCCOc1cc(-c2cc(NCCn3c(C#N)cc4c(OC)ccc(F)c43)ncn2)cc(F)c1C(=O)O [Example 908, 4-{6-[2-(2-Cyano-7-fluoro-4-methoxy-indol-1-yl)-ethylamino]-pyrimidin-4-yl}-2-fluoro-6-propoxy-benzoic acid] | – | – | 17 nM | 33 nM
22 | CCOc1cc(-c2cc(NCCn3c(C#N)cc4c(OC)ccc(F)c43)ncn2)sc1C(=O)NO [Example 1030, 5-{6-[2-(2-Cyano-7-fluoro-4-methoxy-indol-1-yl)-ethylamino]-pyrimidin-4-yl}-3-ethoxy-thiophene-2-carboxylic acid hydroxyamide] | – | – | 15 nM | 3 nM
23 | CCSc1cc(-c2cc(NCCn3c(C#N)cc4c(OC)cccc43)ncn2)ccc1C(=O)O [Example 952, 4-{6-[2-(2-Cyano-4-methoxy-indol-1-yl)-ethylamino]-pyrimidin-4-yl}-2-ethylsulfanyl-benzoic acid] | – | – | 5 nM | 21 nM
24 | COc1cc(F)cc2c1cc(C)n2CCNc1cc(-c2ccc(-c3c[nH]cn3)cc2)ncn1 [compound 188, [2-(6-Fluoro-4-methoxy-2-methyl-indol-1-yl)-ethyl]-{6-[4-(1H-imidazol-4-yl)-phenyl]-pyrimidin-4-yl}-amine] | 17 nM | 43 nM | – | –
25 | COc1ccc(F)c2c1cc(C)n2CCNc1cc(-c2ccc3ncccc3c2)ncn1 [compound 384] | 13 nM | 60 nM | – | –
26 | COc1ccc(F)c2c1cc(C#N)n2CCNc1cc(-c2ccc(OCC(=O)O)c(Cl)c2)ncn1 [Example 841, (2-Chloro-4-{6-[2-(2-cyano-7-fluoro-4-methoxy-indol-1-yl)-ethylamino]-pyrimidin-4-yl}-phenoxy)-acetic acid] | – | – | 25 nM | 61 nM
27 | CCNc1csc(-c2cc(NCCn3c(C)cc4c(OC)ccc(F)c43)ncn2)c1 [Example 1067, [6-(4-Ethylamino-thiophen-2-yl)-pyrimidin-4-yl]-[2-(7-fluoro-4-methoxy-2-methyl-indol-1-yl)-ethyl]-amine] | – | – | 88 nM | 67 nM
28 | CCOc1cc(-c2cc(NCCn3c(C#N)cc4c(OC)cc(F)cc43)ncn2)sc1C(=O)O [compound 391] | 2 nM | 3 nM | – | –
29 | Cc1cc(F)cc2c1cc(C)n2CCNc1cc(-c2cc(F)c(C(=O)O)s2)ncn1 [compound 48] | 24 nM | 351 nM | – | –
30 | CCNc1cc(-c2cc(NCCn3c(C)cc4c(F)ccc(C)c43)ncn2)ccc1C(=O)O [compound 246] | 2 nM | 507 nM | – | –
31 | COc1ccc(F)c2c1cc(C#N)n2CCNc1cc(-c2ccc3cc[nH]c3c2)ncn1 [Example 966, 7-Fluoro-1-{2-[6-(1H-indol-6-yl)-pyrimidin-4-ylamino]-ethyl)-4-methoxy-1H-indole-2-carbonitrile] | – | – | 14 nM | 31 nM
32 | COc1ccc(F)c2c1cc(C#N)n2CCNc1cc(-c2ccnc(N3CCCC3)c2)ncn1 [Example 997, 7-Fluoro-4-methoxy-1-{2-[6-(2-pyrrolidin-1-yl-pyridin-4-yl)-pyrimidin-4-ylamino]-ethyl}-1H-indole-2-carbonitrile] | – | – | 58 nM | 143 nM
33 | CCOc1cc(-c2cc(NCCn3c(C)cc4c(C)ccc(F)c43)ncn2)cc(C)c1C(=O)O [compound 347, 2-Ethoxy-4-{6-[2-(7-fluoro-2,4-dimethyl-indol-1-yl)-ethylamino]-pyrimidin-4-yl}-6-methyl-benzoic acid] | 11 nM | 239 nM | – | –
34 | Cc1ccc(C)c2c1cc(C)n2CCNc1cc(-c2ccc(C(=O)O)c(CC(C)C)c2)ncn1 [compound 328, 2-Isobutyl-4-{6-[2-(2,4,7-trimethyl-indol-1-yl)-ethylamino]-pyrimidin-4-yl}-benzoic acid] | 62 nM | 570 nM | – | –
